Experimental data: ChEMBL document CHEMBL1201862, “PubChem BioAssay data set” (2004)
Calls of active or inactive are those of the source.

Assays:
[1] = biological target: T1, Cytochrome P450 1A2 (Homo sapiens, UniProt P05177);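 also: PubChem cytochrome P450 panel assay, CYP1A2 panel member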
T1 sequence (P05177 whole entry): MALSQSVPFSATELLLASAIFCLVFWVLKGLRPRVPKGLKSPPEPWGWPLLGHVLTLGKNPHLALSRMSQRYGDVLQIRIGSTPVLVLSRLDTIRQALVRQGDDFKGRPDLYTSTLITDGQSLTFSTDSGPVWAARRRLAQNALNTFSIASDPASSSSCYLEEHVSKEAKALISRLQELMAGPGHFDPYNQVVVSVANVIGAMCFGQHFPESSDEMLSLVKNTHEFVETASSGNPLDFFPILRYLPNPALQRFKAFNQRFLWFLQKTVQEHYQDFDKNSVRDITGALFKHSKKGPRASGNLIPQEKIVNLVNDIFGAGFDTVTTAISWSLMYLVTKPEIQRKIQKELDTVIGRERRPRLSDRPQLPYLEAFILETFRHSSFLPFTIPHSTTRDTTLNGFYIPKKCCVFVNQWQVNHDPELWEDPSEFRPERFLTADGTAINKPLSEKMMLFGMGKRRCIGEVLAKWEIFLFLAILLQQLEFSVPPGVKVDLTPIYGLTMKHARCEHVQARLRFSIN

[2] = HEp-2 cell cytotoxicity, dose response, cytotoxicity control for RSV inhibitor project, HTS (AID 2410); type: functional; conditions: human respiratory syncytial virus
[3] = biological target: T2, Delta-type opioid receptor (Homo sapiens, UniProt P41143); test: HTS Image-Based Screen for Antagonists of the DOR Receptor. [Related pubchem assays (depositor defined):AID1777, AID1785, AID1786, AID2133]; type: functional
T2 sequence (P41143 whole entry): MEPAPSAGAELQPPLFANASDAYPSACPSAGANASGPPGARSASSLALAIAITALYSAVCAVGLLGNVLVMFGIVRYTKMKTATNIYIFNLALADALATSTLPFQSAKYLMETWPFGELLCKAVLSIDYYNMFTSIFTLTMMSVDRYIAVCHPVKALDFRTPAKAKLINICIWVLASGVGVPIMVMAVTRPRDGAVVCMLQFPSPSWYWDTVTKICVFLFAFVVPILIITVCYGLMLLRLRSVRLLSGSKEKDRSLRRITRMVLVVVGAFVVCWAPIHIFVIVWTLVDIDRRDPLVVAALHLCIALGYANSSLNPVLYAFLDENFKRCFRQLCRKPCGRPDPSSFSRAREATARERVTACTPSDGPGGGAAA

[4] = biological target: Mu-type opioid receptor (Homo sapiens, UniProt P35372); test: HTS Image-Based Screen for Agonists of the MOR Receptor. [Related pubchem assays (depositor defined):AID1777, AID1785, AID1786, AID2133]; type: functional;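 also: imaging of beta-arrestin GFP recruitment into spots after receptor activation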
Sequence of Mu-type opioid receptor (P35372 whole entry): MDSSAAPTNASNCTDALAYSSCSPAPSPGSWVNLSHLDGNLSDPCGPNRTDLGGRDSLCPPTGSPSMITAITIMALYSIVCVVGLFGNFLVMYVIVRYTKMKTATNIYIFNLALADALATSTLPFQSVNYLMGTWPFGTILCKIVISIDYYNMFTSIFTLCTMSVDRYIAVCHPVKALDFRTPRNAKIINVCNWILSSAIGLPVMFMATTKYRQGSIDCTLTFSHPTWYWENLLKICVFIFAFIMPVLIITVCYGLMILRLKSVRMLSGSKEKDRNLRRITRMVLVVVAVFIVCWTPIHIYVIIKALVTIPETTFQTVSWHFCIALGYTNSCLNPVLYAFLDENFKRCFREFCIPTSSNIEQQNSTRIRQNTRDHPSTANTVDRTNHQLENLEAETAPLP

[5] = biological target: T2, Delta-type opioid receptor; test: HTS Image-Based Screen for Agonists of the DOR Receptor. [Related pubchem assays (depositor defined):AID1777, AID1786, AID2133]; type: functional
[6] = biological target: T3, Kappa-type opioid receptor (Homo sapiens, UniProt P41145); type: functional
T3 sequence (P41145 whole entry): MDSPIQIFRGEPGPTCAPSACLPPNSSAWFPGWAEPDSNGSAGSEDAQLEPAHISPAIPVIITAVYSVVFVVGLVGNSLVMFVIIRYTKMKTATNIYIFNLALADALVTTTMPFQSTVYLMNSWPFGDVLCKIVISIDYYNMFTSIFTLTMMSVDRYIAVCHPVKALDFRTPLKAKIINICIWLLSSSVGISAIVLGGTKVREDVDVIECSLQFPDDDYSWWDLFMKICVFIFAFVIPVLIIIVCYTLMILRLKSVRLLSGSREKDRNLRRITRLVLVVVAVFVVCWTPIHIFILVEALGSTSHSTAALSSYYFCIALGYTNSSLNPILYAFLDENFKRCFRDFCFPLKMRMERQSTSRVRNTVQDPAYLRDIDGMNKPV

[7] = biological target: Beta-galactosidase (Escherichia coli, UniProt Q8VNN2); type: functional
[8] = biological target: T3, Kappa-type opioid receptor; type: functional; remark: listed apart in the source
[9] = biological target: T4, Mannose-6-phosphate isomerase (Homo sapiens, UniProt P34949); test: PMI enzyme inhibitors, confirmation, biochemical, fluorescence intensity (AID 1535)
T4 sequence (P34949 whole entry): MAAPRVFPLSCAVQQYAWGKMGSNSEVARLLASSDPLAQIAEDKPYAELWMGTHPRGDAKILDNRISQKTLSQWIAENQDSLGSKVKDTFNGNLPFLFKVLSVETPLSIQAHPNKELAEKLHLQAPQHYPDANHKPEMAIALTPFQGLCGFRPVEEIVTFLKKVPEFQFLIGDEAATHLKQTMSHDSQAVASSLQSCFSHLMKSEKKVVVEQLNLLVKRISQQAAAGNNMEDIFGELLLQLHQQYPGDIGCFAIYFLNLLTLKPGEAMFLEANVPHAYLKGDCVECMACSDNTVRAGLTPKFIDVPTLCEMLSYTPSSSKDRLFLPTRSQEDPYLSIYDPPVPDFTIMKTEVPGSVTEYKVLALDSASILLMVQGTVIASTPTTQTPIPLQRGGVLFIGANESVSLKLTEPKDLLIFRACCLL

[10] = biological target: Phosphomannomutase 2 (Homo sapiens, UniProt O15305); test: Counter screen SAR assay for PMM2 inhibitors via a fluorescence intensity assay. [Related pubchem assays (depositor defined):AID1545, AID1574]
Sequence of Phosphomannomutase 2 (O15305 whole entry): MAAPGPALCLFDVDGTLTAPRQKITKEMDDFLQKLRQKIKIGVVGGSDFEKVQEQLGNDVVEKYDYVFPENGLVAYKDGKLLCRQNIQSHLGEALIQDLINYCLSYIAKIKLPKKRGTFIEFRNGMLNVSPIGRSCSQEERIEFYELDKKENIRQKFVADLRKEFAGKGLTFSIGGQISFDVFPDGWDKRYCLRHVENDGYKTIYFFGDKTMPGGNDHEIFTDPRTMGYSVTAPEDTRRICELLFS

[11] = system: HEK293; test: NOD1 signaling inhibitors, primary screen, cell-based, luminescence, uHTS (AID 1578); type: functional; conditions: Homo sapiens
[12] = system: HEK293; test: cells; type: functional, cell-based; conditions: Homo sapiens
[13] = system: HEK293; test: cells; type: functional, cell-based; conditions: Homo sapiens; remark: listed apart in the source
[14] = biological target: Nucleotide-binding oligomerization domain-containing protein 2 (Homo sapiens, UniProt Q9HC29); test: NOD2 signaling inhibitors, cell-based, luminescence, uHTS, HEK293 (AID 1566); type: functional
[15] = system: HEK293; test: NOD2 signaling inhibitors in MDP-stimulated cells, cell-based, uHTS, luminescence (AID 2001); type: functional; conditions: Homo sapiens
[16] = system: HEK293; test: cells; type: functional, cell-based; conditions: Homo sapiens; remark: listed apart in the source
[17] = biological target: Exodeoxyribonuclease V (Escherichia coli (strain K12), UniProt P04993+P07648+P08394); test: E. coli RecBCD inhibitors, dose response, counter-screen for AddAB inhibitor project, absorbance, V66 E. coli, mutant T4 phage (AID 492957); type: functional, cell-based, Escherichia coli str. K-12 substr. MG1655
Sequence of Exodeoxyribonuclease V (P04993 whole entry): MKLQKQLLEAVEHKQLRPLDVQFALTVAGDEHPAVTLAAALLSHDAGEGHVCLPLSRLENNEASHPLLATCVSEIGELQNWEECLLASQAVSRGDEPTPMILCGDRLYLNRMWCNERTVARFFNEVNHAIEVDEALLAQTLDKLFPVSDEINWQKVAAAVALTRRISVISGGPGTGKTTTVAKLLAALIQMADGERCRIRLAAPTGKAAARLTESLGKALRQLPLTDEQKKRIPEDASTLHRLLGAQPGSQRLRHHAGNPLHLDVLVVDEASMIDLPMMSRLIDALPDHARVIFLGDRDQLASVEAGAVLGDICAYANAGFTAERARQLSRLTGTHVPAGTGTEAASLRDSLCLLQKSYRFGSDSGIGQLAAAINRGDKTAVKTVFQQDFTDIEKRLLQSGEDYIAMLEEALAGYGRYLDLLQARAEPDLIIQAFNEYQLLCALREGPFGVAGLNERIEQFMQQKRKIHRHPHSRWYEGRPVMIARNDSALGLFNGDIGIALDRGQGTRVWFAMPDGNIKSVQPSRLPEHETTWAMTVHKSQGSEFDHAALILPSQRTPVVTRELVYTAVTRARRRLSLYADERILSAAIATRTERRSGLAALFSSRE
Sequence of Exodeoxyribonuclease V (P07648 whole entry): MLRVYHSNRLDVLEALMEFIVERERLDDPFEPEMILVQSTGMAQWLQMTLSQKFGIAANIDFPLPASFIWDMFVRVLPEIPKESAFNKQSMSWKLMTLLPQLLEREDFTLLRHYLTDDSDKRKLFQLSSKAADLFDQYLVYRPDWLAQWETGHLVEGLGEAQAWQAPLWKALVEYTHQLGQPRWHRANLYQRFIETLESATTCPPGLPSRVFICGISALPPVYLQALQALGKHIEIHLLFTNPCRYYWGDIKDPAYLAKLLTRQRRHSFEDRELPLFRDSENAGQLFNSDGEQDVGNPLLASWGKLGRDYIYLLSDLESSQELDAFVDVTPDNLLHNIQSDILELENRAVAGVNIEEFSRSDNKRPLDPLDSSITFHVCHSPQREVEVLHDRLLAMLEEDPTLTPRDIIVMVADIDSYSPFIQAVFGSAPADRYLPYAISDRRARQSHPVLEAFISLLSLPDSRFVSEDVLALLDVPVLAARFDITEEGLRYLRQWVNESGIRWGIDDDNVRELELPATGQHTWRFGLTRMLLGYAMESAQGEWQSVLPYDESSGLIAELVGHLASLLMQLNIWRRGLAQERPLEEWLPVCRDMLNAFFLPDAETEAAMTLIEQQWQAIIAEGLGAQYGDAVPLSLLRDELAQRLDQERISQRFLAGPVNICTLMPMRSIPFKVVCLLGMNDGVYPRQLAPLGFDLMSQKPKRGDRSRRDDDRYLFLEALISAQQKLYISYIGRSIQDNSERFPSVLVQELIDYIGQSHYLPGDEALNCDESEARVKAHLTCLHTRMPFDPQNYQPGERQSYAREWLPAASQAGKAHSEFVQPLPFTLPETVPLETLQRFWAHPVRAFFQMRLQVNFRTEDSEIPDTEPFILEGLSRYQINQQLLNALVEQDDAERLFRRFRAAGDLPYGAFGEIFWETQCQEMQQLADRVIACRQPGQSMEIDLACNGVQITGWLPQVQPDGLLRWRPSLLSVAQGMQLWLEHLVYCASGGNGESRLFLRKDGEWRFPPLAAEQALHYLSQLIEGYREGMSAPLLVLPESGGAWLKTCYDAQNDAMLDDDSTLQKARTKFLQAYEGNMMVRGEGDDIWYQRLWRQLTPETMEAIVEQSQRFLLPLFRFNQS
Sequence of Exodeoxyribonuclease V (P08394 whole entry): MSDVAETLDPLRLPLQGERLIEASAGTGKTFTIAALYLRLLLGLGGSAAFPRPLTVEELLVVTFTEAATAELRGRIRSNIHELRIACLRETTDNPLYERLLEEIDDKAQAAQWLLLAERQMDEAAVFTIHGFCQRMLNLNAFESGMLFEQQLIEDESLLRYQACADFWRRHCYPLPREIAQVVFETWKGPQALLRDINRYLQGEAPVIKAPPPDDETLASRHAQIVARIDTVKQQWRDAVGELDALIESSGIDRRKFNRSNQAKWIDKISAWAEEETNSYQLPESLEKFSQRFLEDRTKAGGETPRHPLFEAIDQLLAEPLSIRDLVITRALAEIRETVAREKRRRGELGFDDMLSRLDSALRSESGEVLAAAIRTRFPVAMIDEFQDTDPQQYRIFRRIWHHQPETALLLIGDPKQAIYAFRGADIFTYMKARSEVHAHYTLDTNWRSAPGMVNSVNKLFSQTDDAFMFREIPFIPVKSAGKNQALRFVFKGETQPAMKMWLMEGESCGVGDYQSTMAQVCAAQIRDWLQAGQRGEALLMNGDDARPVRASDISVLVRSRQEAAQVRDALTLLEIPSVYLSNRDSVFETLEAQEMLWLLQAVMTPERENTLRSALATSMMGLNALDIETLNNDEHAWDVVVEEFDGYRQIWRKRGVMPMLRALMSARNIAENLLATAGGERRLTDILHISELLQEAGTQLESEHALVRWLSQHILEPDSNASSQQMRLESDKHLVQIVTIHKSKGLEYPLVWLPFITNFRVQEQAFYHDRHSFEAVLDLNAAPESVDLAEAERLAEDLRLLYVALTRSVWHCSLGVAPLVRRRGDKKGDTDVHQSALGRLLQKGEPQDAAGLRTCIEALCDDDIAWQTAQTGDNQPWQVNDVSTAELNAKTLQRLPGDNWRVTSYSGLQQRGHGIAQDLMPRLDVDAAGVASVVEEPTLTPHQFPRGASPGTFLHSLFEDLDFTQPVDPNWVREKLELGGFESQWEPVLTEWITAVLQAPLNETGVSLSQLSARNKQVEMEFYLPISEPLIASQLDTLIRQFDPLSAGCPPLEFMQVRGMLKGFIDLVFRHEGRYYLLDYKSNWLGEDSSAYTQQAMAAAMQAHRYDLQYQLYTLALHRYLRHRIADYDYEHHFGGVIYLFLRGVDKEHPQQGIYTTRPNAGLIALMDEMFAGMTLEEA

[18] = THP-1 cell cytotoxicity, dose response, cytotoxicity control for non-replicating M. tuberculosis project (AID 489025); type: functional
[19] = Counterscreen for AddAB inhibitors: absorbance-based bacterial cell-based high throughput dose response assay for inhibitors of bacterial viability. [Related pubchem assays (depositor defined):AID435030, AID449728, AID449731, AID488942, AID488955, AID488956]; type: functional
[20] = cells; type: functional
[21] = biological target: T5, Tyrosine-protein phosphatase non-receptor type 7 (Homo sapiens, UniProt P35236); type: functional
T5 sequence (P35236 whole entry): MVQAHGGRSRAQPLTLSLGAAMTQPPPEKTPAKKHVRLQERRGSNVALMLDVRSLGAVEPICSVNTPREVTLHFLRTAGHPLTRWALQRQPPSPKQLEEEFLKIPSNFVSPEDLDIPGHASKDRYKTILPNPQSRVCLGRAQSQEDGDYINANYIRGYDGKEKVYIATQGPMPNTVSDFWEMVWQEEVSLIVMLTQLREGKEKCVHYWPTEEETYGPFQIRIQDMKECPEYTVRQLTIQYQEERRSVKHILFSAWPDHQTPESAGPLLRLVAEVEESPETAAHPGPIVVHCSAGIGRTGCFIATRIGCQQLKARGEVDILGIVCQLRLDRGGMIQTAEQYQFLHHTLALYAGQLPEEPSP

[22] = biological target: T6, Tyrosine-protein phosphatase non-receptor type 22 (Homo sapiens, UniProt Q9Y2R2); type: functional
T6 sequence (Q9Y2R2 whole entry): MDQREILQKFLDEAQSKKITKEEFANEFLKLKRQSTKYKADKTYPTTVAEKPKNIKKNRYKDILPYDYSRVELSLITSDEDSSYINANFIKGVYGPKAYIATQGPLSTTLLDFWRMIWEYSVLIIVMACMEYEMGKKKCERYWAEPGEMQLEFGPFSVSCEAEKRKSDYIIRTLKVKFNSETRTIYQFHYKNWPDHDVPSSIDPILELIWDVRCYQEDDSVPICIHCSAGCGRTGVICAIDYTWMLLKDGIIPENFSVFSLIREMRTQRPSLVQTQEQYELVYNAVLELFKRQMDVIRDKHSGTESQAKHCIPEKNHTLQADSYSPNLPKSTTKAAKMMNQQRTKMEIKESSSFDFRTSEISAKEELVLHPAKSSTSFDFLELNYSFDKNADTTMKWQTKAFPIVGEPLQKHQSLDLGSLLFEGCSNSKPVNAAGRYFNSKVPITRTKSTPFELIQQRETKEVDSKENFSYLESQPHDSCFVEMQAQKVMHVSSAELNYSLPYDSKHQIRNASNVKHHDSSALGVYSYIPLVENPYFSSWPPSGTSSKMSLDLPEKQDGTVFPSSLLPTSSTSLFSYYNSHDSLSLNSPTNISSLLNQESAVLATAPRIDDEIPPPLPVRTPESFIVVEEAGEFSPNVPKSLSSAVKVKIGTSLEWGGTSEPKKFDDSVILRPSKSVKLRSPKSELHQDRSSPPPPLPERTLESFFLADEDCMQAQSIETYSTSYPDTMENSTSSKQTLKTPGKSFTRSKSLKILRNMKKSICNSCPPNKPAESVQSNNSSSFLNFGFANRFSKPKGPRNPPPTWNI

[23] = biological target: T7, Hexokinase HKDC1 (Homo sapiens, UniProt Q2TB90); test: HKDC1 hexokinase activators, dose response, biochemical, W721R variant (AID 504730); type: functional
T7 sequence (Q2TB90 whole entry): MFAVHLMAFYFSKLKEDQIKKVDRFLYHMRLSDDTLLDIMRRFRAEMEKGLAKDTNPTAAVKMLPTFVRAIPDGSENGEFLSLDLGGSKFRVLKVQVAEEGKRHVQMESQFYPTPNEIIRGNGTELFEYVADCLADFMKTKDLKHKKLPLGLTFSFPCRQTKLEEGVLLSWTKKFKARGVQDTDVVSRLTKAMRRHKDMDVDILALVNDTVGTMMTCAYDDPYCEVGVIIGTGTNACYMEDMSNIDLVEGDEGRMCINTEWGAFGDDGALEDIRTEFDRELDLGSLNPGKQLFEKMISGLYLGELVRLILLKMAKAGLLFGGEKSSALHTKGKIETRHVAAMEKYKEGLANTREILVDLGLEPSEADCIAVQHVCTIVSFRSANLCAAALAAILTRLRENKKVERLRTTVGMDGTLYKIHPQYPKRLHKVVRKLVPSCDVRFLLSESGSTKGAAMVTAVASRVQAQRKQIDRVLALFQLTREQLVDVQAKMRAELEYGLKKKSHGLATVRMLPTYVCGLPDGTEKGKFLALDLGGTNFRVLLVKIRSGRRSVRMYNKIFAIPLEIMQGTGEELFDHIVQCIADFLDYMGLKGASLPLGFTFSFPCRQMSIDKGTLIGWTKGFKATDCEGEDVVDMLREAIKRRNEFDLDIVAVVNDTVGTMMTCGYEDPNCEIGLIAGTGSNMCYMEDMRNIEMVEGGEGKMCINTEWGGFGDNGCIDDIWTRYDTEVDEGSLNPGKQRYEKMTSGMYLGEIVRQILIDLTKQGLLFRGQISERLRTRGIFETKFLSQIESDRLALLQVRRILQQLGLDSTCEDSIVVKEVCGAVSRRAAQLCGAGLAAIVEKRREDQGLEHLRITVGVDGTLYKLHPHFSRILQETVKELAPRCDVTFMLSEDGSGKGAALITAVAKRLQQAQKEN

[24] = biological target: T6, Tyrosine-protein phosphatase non-receptor type 22; type: functional; remark: listed apart in the source
[25] = biological target: T8, Hexokinase-1 (Homo sapiens, UniProt P19367); test: hexokinase 1 activators, dose response, selectivity assay for HKDC1 activator project, biochemical (AID 504762); type: functional
T8 sequence (P19367 whole entry): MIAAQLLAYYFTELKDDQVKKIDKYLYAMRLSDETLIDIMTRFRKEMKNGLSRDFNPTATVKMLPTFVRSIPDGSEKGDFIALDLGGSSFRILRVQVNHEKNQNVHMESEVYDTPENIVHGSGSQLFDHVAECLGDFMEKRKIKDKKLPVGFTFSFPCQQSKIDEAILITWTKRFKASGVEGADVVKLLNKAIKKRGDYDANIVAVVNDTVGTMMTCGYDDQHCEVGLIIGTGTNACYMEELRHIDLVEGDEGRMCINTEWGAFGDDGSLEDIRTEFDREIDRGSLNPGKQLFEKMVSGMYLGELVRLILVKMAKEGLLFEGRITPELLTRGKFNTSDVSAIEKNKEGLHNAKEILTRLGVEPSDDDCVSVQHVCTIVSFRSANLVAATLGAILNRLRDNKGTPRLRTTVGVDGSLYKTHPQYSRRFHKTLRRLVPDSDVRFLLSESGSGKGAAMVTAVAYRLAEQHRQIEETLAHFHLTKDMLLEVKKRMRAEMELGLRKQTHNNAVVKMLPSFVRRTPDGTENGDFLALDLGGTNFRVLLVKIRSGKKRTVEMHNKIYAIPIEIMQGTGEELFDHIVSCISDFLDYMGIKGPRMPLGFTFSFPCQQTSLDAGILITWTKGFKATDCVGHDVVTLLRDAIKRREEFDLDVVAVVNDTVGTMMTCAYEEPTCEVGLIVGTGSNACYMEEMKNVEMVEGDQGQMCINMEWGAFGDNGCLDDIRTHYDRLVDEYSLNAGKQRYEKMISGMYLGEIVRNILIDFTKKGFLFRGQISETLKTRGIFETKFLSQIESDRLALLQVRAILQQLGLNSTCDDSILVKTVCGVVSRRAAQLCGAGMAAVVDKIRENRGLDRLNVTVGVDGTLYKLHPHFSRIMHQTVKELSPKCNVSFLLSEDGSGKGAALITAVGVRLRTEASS

N[C@H]1[C@@H](C(=O)O)[C@H]2C=C[C@H]1C2.O=S(=O)(O)c1ccccc1
AC50 [1]: inactive

Nc1c2c(nc3sc4c(c13)CCCC4)CCCC2
CC50 [2]: 25.7 µM (active) | IC50 [3]: > 32 µM (inactive) | EC50 [4]: > 32 µM (inactive) | EC50 [5]: > 32 µM (inactive) | IC50 [6]: 9.82 µM (active) | EC50 [7]: > 31.5 µM (inactive) | IC50 [8]: 6.99 µM

CCc1cc(CC)c(/N=c2\ssnc2Cl)c(CC)c1
IC50 [9]: > 100 µM (inactive) | IC50 [10]: > 100 µM (inactive)

Nc1nonc1C(=O)N/N=C/c1ccc([N+](=O)[O-])o1
EC50 [11]: 8.5 µM (active) | IC50 [12]: > 20 µM (inactive) | IC50 [13]: > 20 µM (inactive) | EC50 [14]: 5.54 µM (active) | IC50 [15]: > 20 µM (inactive) | IC50 [16]: > 20 µM (inactive) | IC50 [17]: 56.4 µM (inactive) | CC50 [18]: > 40 µM (active) | IC50 [19]: 14.9 µM (inactive) | IC50 [20]: 7.01 µM (active)

COc1cc(SC#N)ccc1/N=C/c1c(C)[nH]n(-c2ccc(Cl)cc2)c1=O
IC50 [21]: > 79.4 µM (inactive) | IC50 [22]: > 79.4 µM (inactive) | EC50 [23]: > 80 µM (inactive) | IC50 [24]: > 79.4 µM (inactive) | EC50 [25]: > 80 µM (inactive)
